Inhibition data for 8 molecules are collected here from ChEMBL document CHEMBL6103552, “Identification of peptide-based hepatitis B virus capsid inhibitors based on the viral core protein” (Bioorg Med Chem Lett, 2025).

Activity calls are given as the source filed them. How the calls were made is not given here.

The target of the assay is Core antigen (Hepatitis B virus) (UniProt Q03732). The assay is described as follows: Inhibition of Hepatitis B virus capsid formation at 100 uM treated during cell-free wild type HBV Cp synthesis using wheat germ lysates and HBV Cp RNA by Native capsid assay based western blot analysis. The class given is subcellular. A general note: In western blotting, separated proteins are transferred to a membrane and probed.
Core antigen (Hepatitis B virus), sequence (Q03732 as listed by the source): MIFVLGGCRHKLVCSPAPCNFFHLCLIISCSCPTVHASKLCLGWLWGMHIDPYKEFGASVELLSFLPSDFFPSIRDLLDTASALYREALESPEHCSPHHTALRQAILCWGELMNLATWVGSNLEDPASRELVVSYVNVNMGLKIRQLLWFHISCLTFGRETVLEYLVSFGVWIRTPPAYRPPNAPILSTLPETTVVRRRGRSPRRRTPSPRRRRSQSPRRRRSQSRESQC
Consider `CC(=O)N[C@@H](CC(C)C)C(=O)N[C@@H](CCC(=O)O)C(=O)N[C@@H](CC(=O)O)C(=O)N1CCC[C@H]1C(=O)N[C@@H](C)C(=O)N[C@@H](CO)C(=O)N[C@@H](CCCNC(=N)N)C(=O)N[C@@H](CCC(=O)O)C(=O)N[C@@H](CC(C)C)C(=O)N[C@H](C(=O)N[C@H](C(=O)N[C@@H](CO)C(=O)N[C@@H](Cc1ccc(O)cc1)C(=O)N[C@H](C(=O)N[C@@H](CC(N)=O)C(N)=O)C(C)C)C(C)C)C(C)C`, for which the inhibition result was “inactive”. The entry for `CC(=O)N[C@@H](CO)C(=O)N[C@H](C(=O)N[C@@H](CC(C)C)C(=O)N1CCC[C@H]1C(=O)N[C@@H](CCC(=O)O)C(=O)N[C@H](C(=O)N[C@H](C(=O)N[C@H](C(=O)N[C@H](C(=O)N[C@@H](CCCNC(=N)N)C(=O)N[C@@H](CCCNC(=N)N)C(=O)N[C@@H](CCCNC(=N)N)C(=O)NCC(=O)N[C@@H](CCCNC(=N)N)C(=O)N[C@@H](CO)C(N)=O)C(C)C)C(C)C)[C@@H](C)O)[C@@H](C)O)[C@@H](C)O` is “inactive”; for `CC(=O)N[C@@H](Cc1c[nH]c2ccccc12)C(=O)N[C@H](C(=O)NCC(=O)N[C@@H](CO)C(=O)N[C@@H](CC(N)=O)C(=O)N[C@@H](CC(C)C)C(=O)N[C@@H](CCC(=O)O)C(=O)N[C@@H](CC(=O)O)C(=O)N1CCC[C@H]1C(=O)N[C@@H](C)C(=O)N[C@@H](CO)C(=O)N[C@@H](CCCNC(=N)N)C(=O)N[C@@H](CCC(=O)O)C(=O)N[C@@H](CC(C)C)C(=O)N[C@H](C(N)=O)C(C)C)C(C)C` it is “inactive”; for `CC[C@H](C)[C@H](NC(=O)[C@@H]1CCCN1C(=O)[C@H](C)NC(=O)[C@H](CC(N)=O)NC(C)=O)C(=O)N[C@@H](CC(C)C)C(=O)N[C@@H](CO)C(=O)N[C@H](C(=O)N[C@@H](CC(C)C)C(=O)N1CCC[C@H]1C(=O)N[C@@H](CCC(=O)O)C(=O)N[C@H](C(=O)N[C@H](C(=O)N[C@H](C(=O)N[C@H](C(=O)N[C@@H](CCCNC(=N)N)C(N)=O)C(C)C)C(C)C)[C@@H](C)O)[C@@H](C)O)[C@@H](C)O` it is “inactive”. `CC[C@H](C)[C@H](NC(=O)[C@H](Cc1c[nH]c2ccccc12)NC(=O)[C@@H](NC(=O)CNC(=O)[C@H](Cc1ccccc1)NC(=O)[C@H](CO)NC(C)=O)C(C)C)C(=O)N[C@@H](CCCNC(=N)N)C(=O)N[C@H](C(=O)N1CCC[C@H]1C(=O)N1CCC[C@H]1C(=O)N[C@@H](C)C(=O)N[C@@H](Cc1ccc(O)cc1)C(=O)N[C@@H](CCCNC(=N)N)C(=O)N1CCC[C@H]1C(=O)N1CCC[C@H]1C(N)=O)[C@@H](C)O`: the inhibition result was “inactive”.

For the molecule `CSCC[C@H](NC(=O)[C@H](CC(C)C)NC(=O)[C@H](CCC(=O)O)NC(=O)CNC(=O)[C@H](Cc1c[nH]c2ccccc12)NC(=O)[C@H](CS)NC(C)=O)C(=O)N[C@@H](CC(N)=O)C(=O)N[C@@H](CC(C)C)C(=O)N[C@@H](C)C(=O)N[C@H](C(=O)N[C@@H](Cc1c[nH]c2ccccc12)C(=O)N[C@H](C(=O)NCC(=O)N[C@@H](CO)C(=O)N[C@@H](CC(N)=O)C(N)=O)C(C)C)[C@@H](C)O`, the inhibition result was “inactive”. For `CSCC[C@H](NC(=O)[C@H](CC(N)=O)NC(=O)[C@@H](NC(=O)[C@H](CC(N)=O)NC(=O)[C@@H](NC(=O)[C@H](Cc1ccc(O)cc1)NC(=O)[C@H](CO)NC(=O)[C@@H](NC(=O)[C@@H](NC(=O)[C@H](CC(C)C)NC(=O)[C@H](CCC(=O)O)NC(=O)[C@H](CCCNC(=N)N)NC(=O)[C@H](CO)NC(C)=O)C(C)C)C(C)C)C(C)C)C(C)C)C(=O)NCC(=O)N[C@@H](CC(C)C)C(N)=O`, the inhibition result is “inactive”. In the case of `CSCC[C@H](NC(C)=O)C(=O)N[C@@H](CC(N)=O)C(=O)N[C@@H](CC(C)C)C(=O)N[C@@H](C)C(=O)N[C@H](C(=O)N[C@@H](Cc1c[nH]c2ccccc12)C(=O)N[C@H](C(=O)NCC(=O)N[C@@H](CO)C(=O)N[C@@H](CC(N)=O)C(=O)N[C@@H](CC(C)C)C(=O)N[C@@H](CCC(=O)O)C(=O)N[C@@H](CC(=O)O)C(=O)N1CCC[C@H]1C(=O)N[C@@H](C)C(N)=O)C(C)C)[C@@H](C)O`, the inhibition result is “inactive”.
